In US20260374818A1, “CATIONIC PEPTIDES WITH BROAD SPECTRUM ACTIVITY” (priority 2023, published 2026):
Converted amounts (≈) assume the structure as drawn. Where a SMILES comes first, the peptide text is derived from it. [ ]: non-standard residue; d: D form.

Legend:
[1] = system: P. aeruginosa PAO1 biofilms; experiment: Biofilm inhibition by SPOT-synthesized AB103-D variants (crystal violet), P. aeruginosa; type: cell-based, Pseudomonas aeruginosa; details: P. aeruginosa PAO1, SPOT peptides
MRSA USA300 biofilms = experiment: Biofilm inhibition by >95% pure peptides (crystal violet), MRSA; type: cell-based, methicillin resistant Staphylococcus aureus; details: MRSA USA300 biofilms, >95% pure peptides, 10% TSB + 0.1% glucose
[2] = system: P. aeruginosa PAO1 biofilms; details: P. aeruginosa PAO1 biofilms; >95% pure peptides; crystal violet; BM2 minimal media
MRSA USA 300 = experiment: MIC (broth microdilution) of peptides, MRSA; type: cell-based, methicillin resistant Staphylococcus aureus; details: MRSA USA300; mode of three biological replicates
Method: (§1) Minimal inhibitory concentration (MIC) against planktonic bacteria: The MIC of the synthetic peptides was determined in Mueller-Hinton broth (MHB) using the broth microdilution method described previously [Wiegand, I., Hilpert, K., & Hancock, R. E. (2008). Agar and broth dilution methods to determine the minimal inhibitory concentration (MIC) of antimicrobial substances. Nature Protocols, 3(2), 163-175]. Briefly, 10 μl of a 10× concentrated peptide solution was placed in the bottom of a well in a 96-well polypropylene round bottom plate (Corning Inc.). A bacterial suspension of ~5×10^5 CFU/ml was prepared from an overnight culture and 90 μl of this was added to each well. […] Bacteria tested included P. aeruginosa PAO1, MRSA USA300 LAC, Staphylococcus haemolyticus, Staphylococcus epidermidis, Klebsiella pneumoniae and Streptococcus salivarius.
(§2) Finally, the AB103-D derivatives that were the least aggregation prone and which produced the lowest toxic effects in vivo were evaluated for their direct antibacterial activity towards several pathogens of clinical relevance using a standard minimum inhibitory concentration (MIC) assay [Wiegand, I., Hilpert, K., & Hancock, R. E. (2008). Agar and broth dilution methods to determine the minimal inhibitory concentration (MIC) of antimicrobial substances. Nature Protocols, 3(2), 163-175]. Specifically, peptides AB110-D, AB111-D, AB114-D and AB115-D were tested against P. aeruginosa PAO1, MRSA USA 300, Staphylococcus haemolyticus, Staphylococcus epidermidis, Klebsiella pneumoniae and Streptococcus salivarius and compared against the antibacterial activity of DJK-5 and AB103-D (Table 7). Overall, the antibacterial potency of all of the AB103-D derivatives was stronger than that seen for DJK-5, particularly in the case of the Gram-negative pathogens P. aeruginosa and K. pneumoniae. […]

P. aeruginosa PAO1 [3] = experiment: MIC (broth microdilution) of peptides, P. aeruginosa; type: cell-based, Pseudomonas aeruginosa; details: mode of three biological replicates
Method: as §1, §2

[4] = system: Staphylococcus haemolyticus; experiment: MIC (broth microdilution) of peptides, S. haemolyticus; type: cell-based; details: mode of three biological replicates
Method: as §1, §2

[5] = Subdermal murine toxicity model; details: for Average cyst size compared to DJK-5: 16 hours after administration, 4 mg/kg
Method: FIGS. 14A-14B show murine subdermal toxicity assessment of AB103-D derived peptides. Clinical scores were recorded for each peptide treated mouse one hour after peptide administration (FIG. 14A). […] The presence of a cyst or lesion was recorded 16 hours after peptide administration and the size of the cyst was measured using calipers (FIG. 14B). Data shown are the mean of two independent replicates at a peptide dose of 4 mg/kg.
Subdermal murine toxicity model: A subdermal toxicity mouse model was used to evaluate whether peptides induced localized toxicity of treated cutaneous tissue. Mice were anesthetized with 2.5-3% isoflurane and their fur was removed by shaving followed by application of a chemical depilatory. […] Mice were visually assessed and received clinical scores for a battery of signs or symptoms (activity/behaviour change, appearance/grooming, hydration, pain, cyst formation), for which a score of zero was given to animals that appeared normal. Animals were weighed and clinical scores were totalled. Following an overnight (16 h) incubation, mice were scored and weighed then euthanized with CO2 followed by cervical dislocation. Mice were imaged and cysts (swollen, inflamed tissue) were measured using a caliper. Animal experiments were performed in accordance with the Canadian Council on Animal Care (CCAC) guidelines and were approved by the University of British Columbia Animal Care Committee. Female CD-1 mice were purchased from Charles River Laboratories, Inc. (Wilmington, MA). All mice were 8 weeks of age and weighed 25±5 g at the time of the experiment. Animals were group housed in cohorts of three to four littermates. Standard animal husbandry practices were employed.

Streptococcus salivarius = experiment: MIC (broth microdilution) of peptides, S. salivarius; type: cell-based; details: mode of three biological replicates
Method: as §1, §2

Klebsiella pneumoniae = experiment: MIC (broth microdilution) of peptides, K. pneumoniae; type: cell-based; details: mode of three biological replicates
Method: as §1, §2

[6] = system: Staphylococcus epidermidis; experiment: MIC (broth microdilution) of peptides, S. epidermidis; type: cell-based; details: mode of three biological replicates
Method: as §1, §2

E. coli O157:H7 = experiment: Biofilm inhibition (at least 80%), E. coli; type: cell-based, Escherichia coli; details: n = 3, BM2 minimal media, 18-24 hours, crystal violet
MRSA USA300 = experiment: Biofilm inhibition (at least 80%), MRSA; type: cell-based, methicillin resistant Staphylococcus aureus; details: n = 4, 10% TSB + 0.1% glucose, 18-24 hours, crystal violet
[7] = system: Acinetobacter baumannii Ab5075; experiment: Biofilm inhibition (at least 80%), A. baumannii; type: cell-based; details: n = 4, BM2 minimal media, 18-24 hours, crystal violet
P. aeruginosa PAO1 [8] = experiment: Biofilm inhibition (at least 80%), P. aeruginosa; type: cell-based, Pseudomonas aeruginosa; details: n = 4, BM2 minimal media, 18-24 hours, crystal violet
[9] = system: MRSA USA 300 LAC biofilms; experiment: Checkerboard biofilm synergy of AB103-D with antimicrobials, MRSA; type: cell-based, methicillin resistant Staphylococcus aureus; details: for Biofilm MBIC in 10% TSB, 0.1% glucose: antibiotic alone, at least 70% reduction; for Biofilm MBIC in 10% TSB, 0.1% glucose / Fold decrease AB103-D / Fold decrease Antibiotic: MRSA; for FIC: antibiotic used with AB103-D, MRSA USA 300 LAC, ≤0.5 synergy; for Fold decrease AB103-D: in combination of antibiotic with AB103-D; for Fold decrease Antibiotic: in combination with AB103-D
[10] = system: P. aeruginosa PAO1 biofilms; experiment: Checkerboard biofilm synergy of AB103-D with antimicrobials, PAO1; type: cell-based, Pseudomonas aeruginosa; details: for Antibiotic MBIC against biofilms: antibiotic alone, PAO1, BM2, at least 70% reduction; for FIC against biofilms: antibiotic used with AB103-D, PAO1, BM2, ≤0.5 synergy; for Fold Decrease in concentration of AB103-D: in combination of antibiotic with AB103-D; for Fold Decrease in concentration of AB103-D / Fold Decrease in concentration of Antibiotic: PAO1; for Fold Decrease in concentration of Antibiotic: in combination with AB103-D
[11] = system: P. aeruginosa PAO1 planktonic cells; experiment: MIC of antibiotics against planktonic cells, PAO1; type: cell-based, Pseudomonas aeruginosa; details: for MIC against planktonic cells in BM2 medium: PAO1, BM2; for MIC against planktonic cells in MHB medium: PAO1, MHB
[12] = system: MRSA USA 300 LAC planktonic cells; experiment: MIC of antibiotics against planktonic cells, MRSA; type: cell-based, methicillin resistant Staphylococcus aureus; details: MRSA planktonic

Compound | minimum inhibitory concentration of peptide that inhibited at least 90% of biofilm growth (MBIC90) (MRSA USA300 biofilms) [µM] | minimum inhibitory concentration of peptide that inhibited at least 90% of biofilm growth (MBIC90) [2] [µM] | Average cyst size compared to DJK-5 [5] | Biofilm MBIC in 10% TSB, 0.1% glucose [9] | FIC [9] | Fold decrease AB103-D [9] | Fold decrease Antibiotic [9] | Antibiotic MBIC against biofilms [10] [µg/mL] | FIC against biofilms [10] | Fold Decrease in concentration of AB103-D [10] | Fold Decrease in concentration of Antibiotic [10] | MIC against planktonic cells in BM2 medium [11] [µg/mL] | MIC against planktonic cells in MHB medium [11] [µg/mL] | MIC in 10% TSB, 0.1% glucose [12] | MIC in MHB medium [12] [µg/mL] | further results
CC[C@@H](C)[C@@H](NC(=O)[C@@H](C)NC(=O)[C@@H](CCCNC(=N)N)NC(=O)[C@@H](Cc1c[nH]c2ccccc12)NC(=O)[C@@H](CCC(N)=O)NC(=O)[C@H](NC(=O)[C@@H](CCCNC(=N)N)NC(=O)[C@H](NC(=O)[C@@H](Cc1c[nH]c2ccccc12)NC(=O)[C@@H](CCCNC(=N)N)NC(=O)[C@H](NC(=O)[C@H](N)CCCNC(=N)N)C(C)C)[C@H](C)CC)C(C)C)C(N)=O [AB110-D, rvrwirvqwrai] (H-[dR][dV][dR][dW][dI][dR][dV][dQ][dW][dR][dA][dI]-NH2) | 1 | 4 | smaller than those induced by DJK-5 |  |  |  |  |  |  |  |  |  |  |  |  | Activity against PAO1 biofilms compared to AB103-D [1]: activity superior to that of AB103-D; MIC (MRSA USA 300): 0.8 µg/mL (≈ 0.488 µM); MIC (P. aeruginosa PAO1 [3]): 2 µg/mL (≈ 1.22 µM); MIC [4]: 0.8 µg/mL (≈ 0.488 µM)
CC[C@@H](C)[C@@H](NC(=O)[C@@H](C)NC(=O)[C@@H](CCCNC(=N)N)NC(=O)[C@@H](CC(C)C)NC(=O)[C@@H](CCC(N)=O)NC(=O)[C@H](NC(=O)[C@@H](CCCNC(=N)N)NC(=O)[C@H](NC(=O)[C@H](NC(=O)[C@@H](CCCNC(=N)N)NC(=O)[C@H](NC(=O)[C@H](N)CCCNC(=N)N)C(C)C)C(C)C)[C@H](C)CC)C(C)C)C(N)=O [AB115-D, rvrvirvqlrai] (H-[dR][dV][dR][dV][dI][dR][dV][dQ][dL][dR][dA][dI]-NH2) | 1 | 8 | smaller than those induced by DJK-5 |  |  |  |  |  |  |  |  |  |  |  |  | MIC (Streptococcus salivarius): 0.8 µg/mL (≈ 0.541 µM); MIC (Klebsiella pneumoniae): 0.8 µg/mL (≈ 0.541 µM); MIC (MRSA USA 300): 0.8 µg/mL (≈ 0.541 µM); MIC (P. aeruginosa PAO1 [3]): 2 µg/mL (≈ 1.35 µM); MIC [4]: 0.8 µg/mL (≈ 0.541 µM); Clinical score ([5]; 1 hour after subcutaneous administration, comparator DJK-5): < 2; MIC [6]: 0.8 µg/mL (≈ 0.541 µM)
CC[C@@H](C)[C@@H](NC(=O)[C@@H](C)NC(=O)[C@@H](CCCNC(=N)N)NC(=O)[C@@H](Cc1c[nH]c2ccccc12)NC(=O)[C@@H](CCC(N)=O)NC(=O)[C@H](NC(=O)[C@@H](CCCNC(=N)N)NC(=O)[C@H](NC(=O)[C@H](NC(=O)[C@H](NC(=O)[C@H](NC(=O)[C@H](N)CCCNC(=N)N)C(C)C)[C@H](C)CC)C(C)C)[C@H](C)CC)C(C)C)C(N)=O [AB116-D, rvivirvqwrai] (H-[dR][dV][dI][dV][dI][dR][dV][dQ][dW][dR][dA][dI]-NH2) | 1 | >16 | smaller than those induced by DJK-5 |  |  |  |  |  |  |  |  |  |  |  |  | Activity against PAO1 biofilms compared to AB103-D [1]: activity superior to that of AB103-D
O=C(O)c1cn(C2CC2)c2cc(N3CCNCC3)c(F)cc2c1=O [CIP] |  |  |  |  |  |  |  |  |  |  |  |  |  |  |  | Peptide/Antibiotic Concentration where at least 80% of biofilm growth was inhibited (E. coli O157:H7): 0.0625 µg/mL; Peptide/Antibiotic Concentration where at least 80% of biofilm growth was inhibited (MRSA USA300): 8 µg/mL; Peptide/Antibiotic Concentration where at least 80% of biofilm growth was inhibited [7]: 32 µg/mL; Peptide/Antibiotic Concentration where at least 80% of biofilm growth was inhibited (P. aeruginosa PAO1 [8]): 0.125 µg/mL
Benzalkonium-C1 |  |  |  | 1 | 0.5 | 4-fold | 4-fold | 16 | 0.51 | 2-fold | 128-fold | 16 | 16 | 1 | 0.25 | 
Colistin |  |  |  | 2 | 0.63 | 2-fold | 8-fold | 4 | 0.63 | 8-fold | 2-fold | 4 | 1 | 4 | 8 | 
Gentamicin |  |  |  | 0.03 | 1.13 | No | 8-fold | 4 | 0.53 | 2-fold | 32-fold | 4 | 1 | 0.06 | 0.06 | 
Polymyxin B |  |  |  | 2 | 0.5 | 4-fold | 4-fold | 2 | 0.56 | 16-fold | 2-fold | 2 | 2 | 2 | 4 | 
Polyvinylpyrrolidone-Iodine |  |  |  | 156 | 0.63 | 2-fold | 8-fold | 313 | 0.52 | 2-fold | 64-fold | 313 | 2500 | 156 | 2500 | 
